Source: ChEMBL document CHEMBL5055672, “Design, Synthesis, Biological Evaluation, and Computational Studies of Novel Fluorinated Candidates as PI3K Inhibitors: Targeting Fluorophilic Binding Sites” (J Med Chem, 2021)

Key:
[1] = molecular target: T1, Phosphatidylinositol 4,5-bisphosphate 3-kinase catalytic subunit delta isoform (Homo sapiens, UniProt O00329); assay: Inhibition of PI3Kdelta (unknown origin) using PIP2 as substrate preincubated for 10 mins followed by substrate addition and measured after 1 hr by ELISA
T1 sequence (O00329 whole entry): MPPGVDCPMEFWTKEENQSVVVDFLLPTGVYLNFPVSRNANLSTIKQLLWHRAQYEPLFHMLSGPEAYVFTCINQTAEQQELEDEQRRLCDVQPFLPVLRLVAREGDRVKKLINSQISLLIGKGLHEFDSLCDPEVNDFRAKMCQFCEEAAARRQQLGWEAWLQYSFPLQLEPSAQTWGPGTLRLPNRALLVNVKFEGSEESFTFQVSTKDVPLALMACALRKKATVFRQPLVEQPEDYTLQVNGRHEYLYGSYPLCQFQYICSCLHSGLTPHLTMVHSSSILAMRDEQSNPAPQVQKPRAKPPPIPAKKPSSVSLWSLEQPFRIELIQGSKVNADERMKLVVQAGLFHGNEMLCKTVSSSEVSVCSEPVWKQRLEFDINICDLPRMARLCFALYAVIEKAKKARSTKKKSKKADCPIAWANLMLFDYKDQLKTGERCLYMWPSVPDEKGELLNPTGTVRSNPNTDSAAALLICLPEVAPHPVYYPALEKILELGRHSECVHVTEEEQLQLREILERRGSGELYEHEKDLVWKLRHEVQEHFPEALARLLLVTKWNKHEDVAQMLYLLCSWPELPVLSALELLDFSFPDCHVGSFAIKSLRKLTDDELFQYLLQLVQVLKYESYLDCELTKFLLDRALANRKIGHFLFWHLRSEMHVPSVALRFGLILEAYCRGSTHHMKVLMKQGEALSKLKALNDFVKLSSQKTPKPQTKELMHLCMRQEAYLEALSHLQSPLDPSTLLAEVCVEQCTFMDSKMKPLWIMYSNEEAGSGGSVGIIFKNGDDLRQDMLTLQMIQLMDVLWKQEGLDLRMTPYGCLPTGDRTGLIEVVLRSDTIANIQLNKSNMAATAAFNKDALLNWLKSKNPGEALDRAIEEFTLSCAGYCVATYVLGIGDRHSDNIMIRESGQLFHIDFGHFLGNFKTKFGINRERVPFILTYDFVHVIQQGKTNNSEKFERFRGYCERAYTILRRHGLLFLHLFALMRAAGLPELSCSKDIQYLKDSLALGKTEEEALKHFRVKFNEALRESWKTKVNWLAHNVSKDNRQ

[2] = test system: K562; assay: Cytotoxicity against human K562 cells assessed as growth inhibition at 10 uM after 48 hrs by sulforhodamine B assay; format: functional; conditions: read-out: GI
[3] = test system: SR; assay: Cytotoxicity against human SR cells assessed as growth inhibition at 10 uM after 48 hrs by sulforhodamine B assay; format: functional; conditions: read-out: GI
[4] = test system: HOP-62; assay: Cytotoxicity against human HOP-62 cells assessed as growth inhibition at 10 uM after 48 hrs by sulforhodamine B assay; format: functional; conditions: read-out: GI
[5] = test system: NCI-H226; assay: Cytotoxicity against human NCI-H226 cells assessed as growth inhibition at 10 uM after 48 hrs by sulforhodamine B assay; format: functional; conditions: read-out: GI
[6] = test system: UACC-62; assay: Cytotoxicity against human UACC-62 cells assessed as growth inhibition at 10 uM after 48 hrs by sulforhodamine B assay; format: functional; conditions: read-out: GI
[7] = test system: OVCAR-4; assay: Cytotoxicity against human OVCAR-4 cells assessed as growth inhibition at 10 uM after 48 hrs by sulforhodamine B assay; format: functional; conditions: read-out: GI
[8] = test system: CAKI-1; assay: Cytotoxicity against human CAKI-1 cells assessed as growth inhibition at 10 uM after 48 hrs by sulforhodamine B assay; format: functional; conditions: read-out: GI
[9] = test system: SN12C; assay: Cytotoxicity against human SN12C cells assessed as growth inhibition at 10 uM after 48 hrs by sulforhodamine B assay; format: functional; conditions: read-out: GI
[10] = test system: UO-31; assay: Cytotoxicity against human UO-31 cells assessed as growth inhibition at 10 uM after 48 hrs by sulforhodamine B assay; format: functional; conditions: read-out: GI
[11] = test system: MCF7; assay: Cytotoxicity against human MCF7 cells assessed as growth inhibition at 10 uM after 48 hrs by sulforhodamine B assay; format: functional; conditions: read-out: GI
[12] = test system: T47D; assay: Cytotoxicity against human T47D cells assessed as growth inhibition at 10 uM after 48 hrs by sulforhodamine B assay; format: functional; conditions: read-out: GI
[13] = test system: CCRF-CEM; assay: Cytotoxicity against human CCRF-CEM cells assessed as growth inhibition at 10 uM after 48 hrs by sulforhodamine B assay; format: functional; conditions: read-out: GI
[14] = test system: Malme-3M; assay: Cytotoxicity against human MALME-3M cells assessed as growth inhibition at 10 uM after 48 hrs by sulforhodamine B assay; format: functional; conditions: read-out: GI
[15] = test system: BT-549; assay: Cytotoxicity against human BT-549 cells assessed as growth inhibition at 10 uM after 48 hrs by sulforhodamine B assay; format: functional; conditions: read-out: GI
[16] = test system: HL-60(TB); assay: Cytotoxicity against human HL-60(TB) cells assessed as growth inhibition at 10 uM after 48 hrs by sulforhodamine B assay; format: functional; conditions: read-out: GI
[17] = test system: NCI-H522; assay: Cytotoxicity against human NCI-H522 cells assessed as growth inhibition at 10 uM after 48 hrs by sulforhodamine B assay; format: functional; conditions: read-out: GI

O=c1cc(N2CCOCC2)oc2c(-c3ccccc3)cccc12 [LY-294002]
IC50 [1]: 14.9 µM

O=S(=O)(Oc1ccc(-c2nnc(Nc3ccccc3)s2)cc1)C(F)(F)C(F)(F)C(F)(F)C(F)(F)F
inhibition of growth at 10 µM [2]: 12.6% | inhibition of growth at 10 µM [3]: 10.1% | inhibition of growth at 10 µM [4]: 12.4% | inhibition of growth at 10 µM [5]: 15.8% | inhibition of growth at 10 µM [6]: 10.7% | inhibition of growth at 10 µM [7]: 17.2% | inhibition of growth at 10 µM [8]: 22.1% | inhibition of growth at 10 µM [9]: 14.5% | inhibition of growth at 10 µM [10]: 19.9% | inhibition of growth at 10 µM [11]: 12.8% | inhibition of growth at 10 µM [12]: 14.1%

O=S(=O)(Oc1ccc(/C=N/N=c2\scc(-c3ccccc3)n2-c2ccccc2)cc1)C(F)(F)C(F)(F)C(F)(F)C(F)(F)C(F)(F)C(F)(F)F
inhibition of growth at 10 µM [11]: 43.5%

O=S(=O)(Oc1ccc(-c2nnc(Nc3ccccc3)s2)cc1)C(F)(F)C(F)(F)C(F)(F)C(F)(F)C(F)(F)C(F)(F)C(F)(F)C(F)(F)F
inhibition of growth at 10 µM [13]: 12.1% | inhibition of growth at 10 µM [14]: 11.7% | inhibition of growth at 10 µM [10]: 19.4% | inhibition of growth at 10 µM [15]: 12.9%

FC(F)(F)COc1ccc(/C=N/N=c2\scc(-c3ccccc3)n2-c2ccccc2)cc1
inhibition of growth at 10 µM [11]: 53.4%

FC(F)(F)c1ccc(-c2nnc(Nc3ccccc3)s2)cc1
inhibition of growth at 10 µM [16]: 26.2% | inhibition of growth at 10 µM [2]: 13.7% | inhibition of growth at 10 µM [3]: 24.9% | inhibition of growth at 10 µM [17]: 11% | inhibition of growth at 10 µM [8]: 11.7% | inhibition of growth at 10 µM [11]: 11.4%

COC(=O)/C=C1\S/C(=N\N=C\c2ccc(OS(=O)(=O)C(F)(F)C(F)(F)C(F)(F)C(F)(F)F)cc2)N(c2ccccc2)C1=O
inhibition of growth at 10 µM [6]: 21.6% | inhibition of growth at 10 µM [11]: 10%

O=S(=O)(Oc1ccc(/C=N/N=c2\scc(-c3ccccc3)n2-c2ccccc2)cc1)C(F)(F)C(F)(F)C(F)(F)C(F)(F)C(F)(F)C(F)(F)C(F)(F)C(F)(F)F
inhibition of growth at 10 µM [11]: 46.1%
